Laboratory results: ChEMBL document CHEMBL3885881, “DrugMatrix”

Species: Rattus norvegicus
Assay: DrugMatrix - Regimen: Daily Repeat
Type: toxicity, organism-based, Sprague-Dawley
Parameters: regimen Daily Repeat, gender Male, age 6-8 weeks
Conditions: in vivo, po, route oral GAVAGE, […]; for ABSOLUTE BASOPHIL / ABSOLUTE EOSINOPHIL / ABSOLUTE MONOCYTE / ABSOLUTE SEGMENTED NEUTROPHIL / BASOPHIL / EOSINOPHIL / ERYTHROCYTE COUNT / HEMATOCRIT / HEMOGLOBIN / LEUKOCYTE COUNT / LYMPHOCYTE / MEAN CORPUSCULAR HEMOGLOBIN / MEAN CORPUSCULAR HEMOGLOBIN CONCENTRATION / MEAN CORPUSCULAR VOLUME / MONOCYTE / NEUTROPHIL / NUCLEATED RED BLOOD CELLS / PLATELET COUNT: tissue Blood
[1] = 100 mg/kg, 120 h, tissue Plasma, dose level Low, time 5 day
[2] = 750 mg/kg, 72 h, dose level High, time 3 day
[3] = 750 mg/kg, 72 h, tissue Plasma, dose level High, time 3 day
[4] = 750 mg/kg, 120 h, dose level High, time 5 day
[5] = 750 mg/kg, 120 h, tissue Plasma, dose level High, time 5 day

COc1cc([C@@H]2c3cc4c(cc3[C@@H](O[C@@H]3O[C@@H]5CO[C@@H](C)O[C@H]5[C@H](O)[C@H]3O)[C@H]3COC(=O)[C@H]23)OCO4)cc(OC)c1O [ETOPOSIDE]
PHOSPHORUS [1]: 9.87 mg/dL
POTASSIUM [1]: 5.33 MEQ/L
SODIUM [1]: 145.8 MEQ/L
TOTAL BILIRUBIN [1]: 0.1 mg/dL
TOTAL PROTEIN [1]: 5.6 G/DL
URIC ACID [1]: 0.4 mg/dL
ABSOLUTE BASOPHIL [2]: 0 CELLS/uL
ABSOLUTE EOSINOPHIL [2]: 0 CELLS/uL
ABSOLUTE MONOCYTE [2]: 23 CELLS/uL
ABSOLUTE SEGMENTED NEUTROPHIL [2]: 326.67 CELLS/uL
BASOPHIL [2]: 0%
EOSINOPHIL [2]: 0%
ERYTHROCYTE COUNT [2]: 4.79 x10E6/uL
HEMATOCRIT [2]: 30.9%
HEMOGLOBIN [2]: 12.47 G/DL
LEUKOCYTE COUNT [2]: 4 x10E3/uL
LYMPHOCYTE [2]: 91.33%
MEAN CORPUSCULAR HEMOGLOBIN [2]: 26 pg
MEAN CORPUSCULAR HEMOGLOBIN CONCENTRATION [2]: 40.33 G/DL
MEAN CORPUSCULAR VOLUME [2]: 64.5 fL
MONOCYTE [2]: 0.67%
NEUTROPHIL [2]: 8%
NUCLEATED RED BLOOD CELLS [2]: 0 /100WBC
PLATELET COUNT [2]: 1133.33 x10E3/uL
ALANINE AMINOTRANSFERASE [3]: 36.33 u/L
ALBUMIN [3]: 3.77 G/DL
ASPARTATE AMINOTRANSFERASE [3]: 71 u/L
BLOOD UREA NITROGEN [3]: 9 mg/dL
CARBON DIOXIDE [3]: 26 mmol/L
CHOLESTEROL [3]: 79.67 mg/dL
CREATINE PHOSPHOKINASE [3]: 235.33 u/L
CREATININE [3]: 0.1 mg/dL
GLUCOSE [3]: 189 mg/dL
LACTATE DEHYDROGENASE [3]: 94.67 u/L
LIPASE [3]: 11.33 u/L
PHOSPHORUS [3]: 11.07 mg/dL
POTASSIUM [3]: 4.56 MEQ/L
SODIUM [3]: 142.5 MEQ/L
TOTAL BILIRUBIN [3]: 0.1 mg/dL
TOTAL PROTEIN [3]: 5.4 G/DL
URIC ACID [3]: 0.37 mg/dL
ABSOLUTE BASOPHIL [4]: 0 CELLS/uL
ABSOLUTE EOSINOPHIL [4]: 0 CELLS/uL
ABSOLUTE MONOCYTE [4]: 44.5 CELLS/uL
ABSOLUTE SEGMENTED NEUTROPHIL [4]: 165.5 CELLS/uL
BASOPHIL [4]: 0%
EOSINOPHIL [4]: 0%
ERYTHROCYTE COUNT [4]: 6.19 x10E6/uL
HEMATOCRIT [4]: 38.1%
HEMOGLOBIN [4]: 15.5 G/DL
LEUKOCYTE COUNT [4]: 2.85 x10E3/uL
LYMPHOCYTE [4]: 93%
MEAN CORPUSCULAR HEMOGLOBIN [4]: 25.05 pg
MEAN CORPUSCULAR HEMOGLOBIN CONCENTRATION [4]: 40.7 G/DL
MEAN CORPUSCULAR VOLUME [4]: 61.55 fL
MONOCYTE [4]: 1.5%
NEUTROPHIL [4]: 5.5%
NUCLEATED RED BLOOD CELLS [4]: 0 /100WBC
PLATELET COUNT [4]: 975 x10E3/uL
ALANINE AMINOTRANSFERASE [5]: 21.5 u/L
ALBUMIN [5]: 4.1 G/DL
ASPARTATE AMINOTRANSFERASE [5]: 87 u/L
BLOOD UREA NITROGEN [5]: 106.5 mg/dL
CARBON DIOXIDE [5]: 28 mmol/L
CHLORIDE [5]: 92 MEQ/L
CHOLESTEROL [5]: 83.5 mg/dL
CREATINE PHOSPHOKINASE [5]: 328.5 u/L
CREATININE [5]: 0.69 mg/dL
GLUCOSE [5]: 115 mg/dL
LACTATE DEHYDROGENASE [5]: 82 u/L
LIPASE [5]: 10 u/L
PHOSPHORUS [5]: 9.8 mg/dL
POTASSIUM [5]: 6.46 MEQ/L
SODIUM [5]: 133.6 MEQ/L
TOTAL BILIRUBIN [5]: 0.15 mg/dL
TOTAL PROTEIN [5]: 6.3 G/DL
URIC ACID [5]: 0.35 mg/dL
